In the NIST ThermoML archive (doi:10.1016/j.jct.2014.04.026):
Values joined by “and” are separate entries in the source; they are usually repeats but may differ in a detail not shown here. Equal values may be shown once.

Tests used:
[1] = for vapor or sublimation pressure: Closed cell (Static) method
[2] = Molar enthalpy of transition or fusion; conditions: Crystal; DSC

Cn1cnc2ccccc21 [1-methylbenzimidazole]
[1]
Conditions	Normal melting temperature [°C]	vapor or sublimation pressure
301.22 K, Crystal	–	0.00026 kPa
303.14 K, Crystal	–	0.00033 kPa
303.16 K, Liquid	–	0.00051 kPa
305.14 K, Crystal	–	0.00042 kPa
305.18 K, Crystal	–	0.00041 kPa
305.2 K, Liquid	–	0.00062 kPa
307.12 K, Liquid	–	0.00074 kPa
307.14 K, Crystal	–	0.00051 kPa
309.1 K, Liquid	–	0.00089 kPa
309.11 K, Crystal	–	0.00063 kPa
311.07 K, Crystal	–	0.00078 kPa
311.09 K, Liquid	–	0.00107 kPa
313.09 K, Crystal	–	0.00097 kPa
313.12 K, Liquid	–	0.00128 kPa
315.09 K, Liquid	–	0.00153 kPa
315.1 K, Crystal	–	0.00119 kPa
317.04 K, Liquid	–	0.00182 kPa
317.06 K, Crystal	–	0.00146 kPa
319.03 K, Crystal	–	0.00178 kPa
319.07 K, Liquid	–	0.00217 kPa
321.01 K, Liquid	–	0.00255 kPa
321.02 K, Crystal	–	0.00217 kPa
322.97 K, Crystal	–	0.00264 kPa
322.99 K, Liquid	–	0.00304 kPa
325.01 K, Crystal	–	0.00324 kPa
327 K, Crystal	–	0.00392 kPa
328.91 K, Crystal	–	0.00473 kPa
332.95 K, Liquid	–	0.00656 kPa
334.92 K, Liquid	–	0.00759 kPa
336.91 K, Liquid	–	0.0089 kPa
336.92 K, Liquid	–	0.00896 kPa
338.9 K, Liquid	–	0.01031 kPa
340.86 K, Liquid	–	0.01187 kPa
340.87 K, Liquid	–	0.01203 kPa
342.88 K, Liquid	–	0.01375 kPa
344.83 K, Liquid	–	0.01603 kPa and 0.01591 kPa
346.81 K, Liquid	–	0.01835 kPa
348.79 K, Liquid	–	0.02107 kPa
350.76 K, Liquid	–	0.02401 kPa
352.73 K, Liquid	–	0.02767 kPa and 0.02759 kPa
354.7 K, Liquid	–	0.03132 kPa
356.69 K, Liquid	–	0.03607 kPa
358.67 K, Liquid	–	0.04098 kPa
360.63 K, Liquid	–	0.04632 kPa
362.6 K, Liquid	–	0.05225 kPa
364.59 K, Liquid	–	0.05898 kPa
366.55 K, Liquid	–	0.06653 kPa
368.53 K, Liquid	–	0.07509 kPa
370.5 K, Liquid	–	0.08443 kPa
372.49 K, Liquid	–	0.09469 kPa
Crystal, DTA	56.1	–

Conditions	Molar enthalpy of transition or fusion [kcal/mol]
[2]	3.32
